This assay deals with colorectal cancer cell lines with stably overexpressed or knockdown piR-54265. The experiment in a line: IC50 experiments with chemotherapy drugs on colorectal cancer cell lines with overexpressed or knockdown piR-54265. The format is cell-based. Particulars: for cell chemosensitivity (change of IC50): cells after knocking down piR-54265, versus control; for chemoresistance of the colorectal cancer cells (change of IC50): cells overexpressing piR-54265, versus control. The text has this: IC50 experiments with the first-line colorectal cancer chemotherapy drugs 5-FU and L-OHP were respectively performed on colorectal cancer cell lines with stably overexpressed or knockdown piR-54265. Subcutaneous xenograft tumors in nude mice were established using the stable cell lines mentioned above, and when a tumor volume reached 250 mm^3, treatment of intraperitoneal injection with 5-FU or L-OHP was started, and the change of the tumor volume was periodically measured.

For `O=c1[nH]cc(F)c(=O)[nH]1` [5-FU], the “cell chemosensitivity (change of IC50)” value was “improved” and the “chemoresistance of the colorectal cancer cells (change of IC50)” value was “enhanced”.
As for `N[C@@H]1CCCC[C@H]1N.O=C([O-])C(=O)[O-].[Pt+2]` [L-OHP], the “cell chemosensitivity (change of IC50)” value was “improved” and the “chemoresistance of the colorectal cancer cells (change of IC50)” value is “enhanced”.

These data come from patent US11674172B2, “PIRNA-54265 detection kit used for early screening, diagnosis, curative efficacy monitoring and prognostic evaluation of colorectal cancer” (SUN YAT-SEN UNIVERSITY, priority 2018, dated 2023).
